{"source": "patent US20260232597A1", "about": "“PHARMACEUTICAL COMPOSITION OF TRAMETINIB AND PROCESS OF PREPARATION THEREOF” (ALEMBIC PHARMACEUTICALS LIMITED, priority 2023, published 2026)", "key": {"[1]": {"assay": "Saturation solubility of drug substance in different dissolution media (incubator shaker, 24 hrs, HPLC)", "format": "physicochemical", "conditions": "37° C.; for solubility at 24 h: thermodynamic from solid", "experimental": "Solubility study of drug substance was carried out in different dissolution media. The saturated solutions of drug substance were prepared in the recommended dissolution media. Initial pH of the saturated solutions was noted. Then the solutions were allowed to shake for 24 hours in the incubator shaker at 150 RPM. The temperature was kept around 37° C.±0.5° C. After 24 hours of shaking, pH of saturated solutions was noted. Further dilutions of these solutions were made as per the standard concentration. Analysis was carried out using HPLC technique. The sample was prepared in triplicates for saturation solubility determination."}, "[2]": {"conditions": "cited from earlier work"}, "[3]": {"assay": "Dissolution studies for Example 2 (TA0 to TA14)", "format": "physicochemical", "conditions": "4.5 Acetate Buffer + 0.75% SLS, Type II, 500 mL, 60 RPM"}, "[4]": {"conditions": "as disclosed in US'304 patent; cited from earlier work"}, "[5]": {"conditions": "pH 4.5 Acetate Buffer + 0.75% SDS"}, "[6]": {"conditions": "pH 6.8 Phosphate Buffer + 0.75% SDS"}, "[7]": {"conditions": "pH 7.0 Phosphate Buffer + 0.75% SDS"}}, "data": [{"molecule": "CC(=O)Nc1cccc(-n2c(=O)n(C3CC3)c(=O)c3c(Nc4ccc(I)cc4F)n(C)c(=O)c(C)c32)c1", "note": "[Trametinib, N-(3-{3-Cyclopropyl-5-[(2-fluoro-4-iodophenyl)amino]-6,8-dimethyl-2,4,7-trioxo-3,4,6,7-tetrahydropyrido[4,3-d]pyrimidin-1 (2H)-yl}phenyl) acetamide]", "values": [{"measurement": "Solubility mg/250 mL", "setting": "[1]; 0.1N HCl + 0.75% SDS", "value": 17, "unit": "mg/250 mL"}, {"measurement": "Solubility mg/500 mL", "setting": "[1]; 0.1N HCl + 0.75% SDS", "value": 33, "unit": "mg/500 mL"}, {"measurement": "Solubility mg/900 mL", "setting": "[1]; 0.1N HCl + 0.75% SDS", "value": 60, "unit": "mg/900 mL"}, {"measurement": "Solubility mg/250 mL", "setting": "[1]; 0.1N HCl", "value": 4.2, "unit": "mg/250 mL"}, {"measurement": "Solubility mg/500 mL", "setting": "[1]; 0.1N HCl", "value": 8, "unit": "mg/500 mL"}, {"measurement": "Solubility mg/900 mL", "setting": "[1]; 0.1N HCl", "value": 15, "unit": "mg/900 mL"}, {"measurement": "solubility at 24 h", "setting": "[1]; aqueous buffer, pH 4.5 Acetate Buffer", "value": 10, "unit": "µg/mL"}, {"measurement": "solubility at 24 h", "setting": "[1]; aqueous buffer, pH 6.8 Phosphate Buffer", "value": 20, "unit": "µg/mL"}, {"measurement": "solubility at 24 h", "setting": "[1]; aqueous with cosolvent or surfactant or cyclodextrin, 0.1N HCl + 0.75% SDS", "value": 70, "unit": "µg/mL"}, {"measurement": "solubility at 24 h", "setting": "[1]; aqueous with cosolvent or surfactant or cyclodextrin, pH 4.5 Acetate Buffer + 0.75% SDS", "value": 100, "unit": "µg/mL"}, {"measurement": "solubility at 24 h", "setting": "[1]; aqueous with cosolvent or surfactant or cyclodextrin, pH 6.8 Phosphate Buffer + 0.75% SDS", "value": 10, "unit": "µg/mL"}, {"measurement": "solubility at 24 h", "setting": "[1]; aqueous with cosolvent or surfactant or cyclodextrin, pH 7.0 Phosphate Buffer + 0.75% SDS", "value": 10, "unit": "µg/mL"}, {"measurement": "Solubility mg/250 mL", "setting": "[1]; [5]", "value": 24, "unit": "mg/250 mL"}, {"measurement": "Solubility mg/500 mL", "setting": "[1]; [5]", "value": 48, "unit": "mg/500 mL"}, {"measurement": "Solubility mg/900 mL", "setting": "[1]; [5]", "value": 87, "unit": "mg/900 mL"}, {"measurement": "Solubility mg/250 mL", "setting": "[1]; pH 4.5 Acetate Buffer", "value": 2.5, "unit": "mg/250 mL"}, {"measurement": "Solubility mg/500 mL", "setting": "[1]; pH 4.5 Acetate Buffer", "value": 5, "unit": "mg/500 mL"}, {"measurement": "Solubility mg/900 mL", "setting": "[1]; pH 4.5 Acetate Buffer", "value": 9, "unit": "mg/900 mL"}, {"measurement": "Solubility mg/250 mL", "setting": "[1]; [6]", "value": 3, "unit": "mg/250 mL"}, {"measurement": "Solubility mg/500 mL", "setting": "[1]; [6]", "value": 5, "unit": "mg/500 mL"}, {"measurement": "Solubility mg/900 mL", "setting": "[1]; [6]", "value": 9, "unit": "mg/900 mL"}, {"measurement": "Solubility mg/250 mL", "setting": "[1]; pH 6.8 Phosphate Buffer", "value": 4.2, "unit": "mg/250 mL"}, {"measurement": "Solubility mg/500 mL", "setting": "[1]; pH 6.8 Phosphate Buffer", "value": 8, "unit": "mg/500 mL"}, {"measurement": "Solubility mg/900 mL", "setting": "[1]; pH 6.8 Phosphate Buffer", "value": 15, "unit": "mg/900 mL"}, {"measurement": "Solubility mg/250 mL", "setting": "[1]; [7]", "value": 3, "unit": "mg/250 mL"}, {"measurement": "Solubility mg/500 mL", "setting": "[1]; [7]", "value": 5, "unit": "mg/500 mL"}, {"measurement": "Solubility mg/900 mL", "setting": "[1]; [7]", "value": 9, "unit": "mg/900 mL"}, {"measurement": "Solubility mg/250 mL", "setting": "[1]; pH 7.0 Phosphate Buffer", "value": 0.0, "unit": "mg/250 mL"}, {"measurement": "Solubility mg/500 mL", "setting": "[1]; pH 7.0 Phosphate Buffer", "value": 0, "unit": "mg/500 mL"}, {"measurement": "Solubility mg/900 mL", "setting": "[1]; pH 7.0 Phosphate Buffer", "value": 0, "unit": "mg/900 mL"}, {"measurement": "solubility at 24 h", "setting": "[1]; simulated gastric fluid, 0.1N HCl", "value": 20, "unit": "µg/mL"}, {"measurement": "Solubility relative to dimethyl sulfoxide solvate", "setting": "[2]; as disclosed in US'304 patent", "value": "much less soluble than dimethyl sulfoxide solvate of Trametinib"}, {"measurement": "% DR", "setting": "[3]; 5 mins", "value": 9, "unit": "%"}, {"measurement": "% DR", "setting": "[3]; 10 mins", "value": 11, "unit": "%"}, {"measurement": "% DR", "setting": "[3]; 15 mins", "value": 12, "unit": "%"}, {"measurement": "% DR", "setting": "[3]; 20 mins", "value": 13, "unit": "%"}, {"measurement": "% DR", "setting": "[3]; 30 mins", "value": 14, "unit": "%"}, {"measurement": "% DR", "setting": "[3]; 45 mins", "value": 16, "unit": "%"}, {"measurement": "% DR", "setting": "[3]; 60 mins", "value": 17, "unit": "%"}, {"measurement": "% DR", "setting": "[3]; 90 mins", "value": 19, "unit": "%"}, {"measurement": "% DR", "setting": "[3]; 120 mins", "value": 21, "unit": "%"}, {"measurement": "Exposure and absorption upon in vivo administration", "setting": "[4]", "value": "poor exposure and absorption"}]}, {"molecule": "CC(=O)Nc1cccc(-n2c(=O)n(C3CC3)c(=O)c3c(Nc4ccc(I)cc4F)n(C)c(=O)c(C)c32)c1.CC(=O)O", "note": "[TA2, Trametinib acetic acid solvate]", "values": [{"measurement": "% DR", "setting": "[3]; 5 mins", "value": 2, "unit": "%"}, {"measurement": "% DR", "setting": "[3]; 10 mins", "value": 3, "unit": "%"}, {"measurement": "% DR", "setting": "[3]; 15 mins", "value": 5, "unit": "%"}, {"measurement": "% DR", "setting": "[3]; 20 mins", "value": 7, "unit": "%"}, {"measurement": "% DR", "setting": "[3]; 30 mins", "value": 9, "unit": "%"}, {"measurement": "% DR", "setting": "[3]; 45 mins", "value": 13, "unit": "%"}, {"measurement": "% DR", "setting": "[3]; 60 mins", "value": 16, "unit": "%"}, {"measurement": "% DR", "setting": "[3]; 90 mins", "value": 23, "unit": "%"}, {"measurement": "% DR", "setting": "[3]; 120 mins", "value": 29, "unit": "%"}]}, {"molecule": "CC(=O)Nc1cccc(-n2c(=O)n(C3CC3)c(=O)c3c(Nc4ccc(I)cc4F)n(C)c(=O)c(C)c32)c1.C[S+](C)[O-]", "note": "[Trametinib DMSO, Trametinib dimethyl sulfoxide]", "values": [{"measurement": "Average solubility", "setting": "[1]; 0.1N HCl + 0.75% SDS", "value": 50, "unit": "µg/mL"}, {"measurement": "Solubility mg/250 mL", "setting": "[1]; 0.1N HCl + 0.75% SDS", "value": 11.7, "unit": "mg/250 mL"}, {"measurement": "Solubility mg/500 mL", "setting": "[1]; 0.1N HCl + 0.75% SDS", "value": 23, "unit": "mg/500 mL"}, {"measurement": "Solubility mg/900 mL", "setting": "[1]; 0.1N HCl + 0.75% SDS", "value": 42, "unit": "mg/900 mL"}, {"measurement": "Solubility mg/250 mL", "setting": "[1]; 0.1N HCl", "value": 0.8, "unit": "mg/250 mL"}, {"measurement": "Solubility mg/500 mL", "setting": "[1]; 0.1N HCl", "value": 2, "unit": "mg/500 mL"}, {"measurement": "Solubility mg/900 mL", "setting": "[1]; 0.1N HCl", "value": 3, "unit": "mg/900 mL"}, {"measurement": "Average solubility", "setting": "[1]; [5]", "value": 240, "unit": "µg/mL"}, {"measurement": "Solubility mg/250 mL", "setting": "[1]; [5]", "value": 60.0, "unit": "mg/250 mL"}, {"measurement": "Solubility mg/500 mL", "setting": "[1]; [5]", "value": 120, "unit": "mg/500 mL"}, {"measurement": "Solubility mg/900 mL", "setting": "[1]; [5]", "value": 216, "unit": "mg/900 mL"}, {"measurement": "Solubility mg/250 mL", "setting": "[1]; pH 4.5 Acetate Buffer", "value": 0.0, "unit": "mg/250 mL"}, {"measurement": "Solubility mg/500 mL", "setting": "[1]; pH 4.5 Acetate Buffer", "value": 0, "unit": "mg/500 mL"}, {"measurement": "Solubility mg/900 mL", "setting": "[1]; pH 4.5 Acetate Buffer", "value": 0, "unit": "mg/900 mL"}, {"measurement": "Average solubility", "setting": "[1]; [6]", "value": 70, "unit": "µg/mL"}, {"measurement": "Solubility mg/250 mL", "setting": "[1]; [6]", "value": 18.3, "unit": "mg/250 mL"}, {"measurement": "Solubility mg/500 mL", "setting": "[1]; [6]", "value": 37, "unit": "mg/500 mL"}, {"measurement": "Solubility mg/900 mL", "setting": "[1]; [6]", "value": 66, "unit": "mg/900 mL"}, {"measurement": "Solubility mg/250 mL", "setting": "[1]; pH 6.8 Phosphate Buffer", "value": 0.0, "unit": "mg/250 mL"}, {"measurement": "Solubility mg/500 mL", "setting": "[1]; pH 6.8 Phosphate Buffer", "value": 0, "unit": "mg/500 mL"}, {"measurement": "Solubility mg/900 mL", "setting": "[1]; pH 6.8 Phosphate Buffer", "value": 0, "unit": "mg/900 mL"}, {"measurement": "Average solubility", "setting": "[1]; [7]", "value": 70, "unit": "µg/mL"}, {"measurement": "Solubility mg/250 mL", "setting": "[1]; [7]", "value": 18.3, "unit": "mg/250 mL"}, {"measurement": "Solubility mg/500 mL", "setting": "[1]; [7]", "value": 37, "unit": "mg/500 mL"}, {"measurement": "Solubility mg/900 mL", "setting": "[1]; [7]", "value": 66, "unit": "mg/900 mL"}, {"measurement": "Solubility mg/250 mL", "setting": "[1]; pH 7.0 Phosphate Buffer", "value": 0.0, "unit": "mg/250 mL"}, {"measurement": "Solubility mg/500 mL", "setting": "[1]; pH 7.0 Phosphate Buffer", "value": 0, "unit": "mg/500 mL"}, {"measurement": "Solubility mg/900 mL", "setting": "[1]; pH 7.0 Phosphate Buffer", "value": 0, "unit": "mg/900 mL"}, {"measurement": "Solubility in aqueous media", "setting": "[2]; pH range of 2 to 8", "value": "practically insoluble"}, {"measurement": "% DR", "setting": "[3]; 5 mins", "value": 27, "unit": "%"}, {"measurement": "% DR", "setting": "[3]; 10 mins", "value": 34, "unit": "%"}, {"measurement": "% DR", "setting": "[3]; 15 mins", "value": 38, "unit": "%"}, {"measurement": "% DR", "setting": "[3]; 20 mins", "value": 39, "unit": "%"}, {"measurement": "% DR", "setting": "[3]; 30 mins", "value": 41, "unit": "%"}, {"measurement": "% DR", "setting": "[3]; 45 mins", "value": 42, "unit": "%"}, {"measurement": "% DR", "setting": "[3]; 60 mins", "value": 43, "unit": "%"}, {"measurement": "% DR", "setting": "[3]; 90 mins", "value": 44, "unit": "%"}, {"measurement": "% DR", "setting": "[3]; 120 mins", "value": 44, "unit": "%"}]}]}
